Active and inactive are the calls of the source. No cut-off for these calls is given here.
What was measured:
Myoblast [1] = assay: Effect on myotube gene expression in facioscapulohumeral muscular dystrophy (FSHD) primary pateint derived myoblasts at 0.03 to 3 microM assessed as decrease in DMD expression; type: functional, cell-based; details: Homo sapiens, dose 0.03-3 µM
Myoblast [2] = assay: Effect on DUX4-target gene expression in facioscapulohumeral muscular dystrophy (FSHD) primary pateint derived myoblasts at 0.03 to 3 microM assessed as decrease in MBD3L2 expression; type: functional, cell-based; details: Homo sapiens, dose 0.03-3 µM
[3] = Downregulation of DUX4 expression in facioscapulohumeral muscular dystrophy (FSHD) primary pateint derived myoblasts and measured by immunocytochemistry analysis; type: functional, cell-based; details: Homo sapiens, Myoblast
Myoblast [4] = assay: Effect on DUX4-target gene expression in facioscapulohumeral muscular dystrophy (FSHD) primary pateint derived myoblasts at 0.03 to 3 microM assessed as decrease in SPRYD5 expression; type: functional, cell-based; details: Homo sapiens, dose 0.03-3 µM
Myoblast [5] = assay: Effect on myotube gene expression in facioscapulohumeral muscular dystrophy (FSHD) primary pateint derived myoblasts at 0.03 to 3 microM assessed as decrease in DES expression; type: functional, cell-based; details: Homo sapiens, dose 0.03-3 µM
Myoblast [6] = assay: Rescue of apoptosis in facioscapulohumeral muscular dystrophy (FSHD) primary pateint derived myoblasts at 0.01 to 3 uM assessed as decrease in caspase 3/7 activation and measured by live cell imaging method; type: functional, cell-based; details: Homo sapiens, dose 0.01-3 µM
Myoblast [7] = assay: Effect on nuclei count in facioscapulohumeral muscular dystrophy (FSHD) affected human embryonic stem cell (hESC)-derived skeletal myoblasts at 100 nM and measured by immunocytochemistry analysis relative to control; type: functional, cell-based
Myoblast [8] = assay: Effect on DUX4-target gene expression in facioscapulohumeral muscular dystrophy (FSHD) primary pateint derived myoblasts at 0.03 to 3 microM assessed as decrease in TRIM49 expression; type: functional, cell-based; details: Homo sapiens, dose 0.03-3 µM
Myoblast [9] = assay: Effect on DUX4-target gene expression in facioscapulohumeral muscular dystrophy (FSHD) primary pateint derived myoblasts at 0.03 to 3 microM assessed as decrease in ZNF296 expression; type: functional, cell-based; details: Homo sapiens, dose 0.03-3 µM
Myoblast [10] = assay: Effect on DUX4-target gene expression in facioscapulohumeral muscular dystrophy (FSHD) primary pateint derived myoblasts at 0.03 to 3 microM assessed as decrease in CCNA1 expression; type: functional, cell-based; details: Homo sapiens, dose 0.03-3 µM
Myoblast [11] = assay: Rescue of cell death in facioscapulohumeral muscular dystrophy (FSHD) primary pateint derived myoblasts at 0.01 to 3 uM and measured by live cell imaging method; type: functional, cell-based; details: Homo sapiens, dose 0.01-3 µM
Myoblast [12] = assay: Effect on DUX4-target gene expression in facioscapulohumeral muscular dystrophy (FSHD) primary pateint derived myoblasts at 0.03 to 3 microM assessed as decrease in PRAMEF6 expression; type: functional, cell-based; details: Homo sapiens, dose 0.03-3 µM
Myoblast [13] = assay: Effect on myotube gene expression in facioscapulohumeral muscular dystrophy (FSHD) primary pateint derived myoblasts at 0.03 to 3 microM assessed as decrease in MYH3 expression; type: functional, cell-based; details: Homo sapiens, dose 0.03-3 µM
Myoblast [14] = assay: Effect on DUX4-target gene expression in facioscapulohumeral muscular dystrophy (FSHD) primary pateint derived myoblasts at 0.03 to 3 microM assessed as decrease in LEUTX expression; type: functional, cell-based; details: Homo sapiens, dose 0.03-3 µM
Myoblast [15] = assay: Downregulation of DUX4 expression in facioscapulohumeral muscular dystrophy (FSHD) affected human embryonic stem cell (hESC)-derived skeletal myoblasts at 0.01 to 3 uM and measured by immunocytochemistry analysis relative to control; type: functional, cell-based; details: dose 0.01-3 µM
Myoblast [16] = assay: Effect on DUX4-target gene expression in facioscapulohumeral muscular dystrophy (FSHD) primary pateint derived myoblasts at 0.03 to 3 microM assessed as decrease in TRIM43 expression; type: functional, cell-based; details: Homo sapiens, dose 0.03-3 µM
Myoblast [17] = assay: Effect on myotube gene expression in facioscapulohumeral muscular dystrophy (FSHD) primary pateint derived myoblasts at 0.03 to 3 microM assessed as decrease in CKM expression; type: functional, cell-based; details: Homo sapiens, dose 0.03-3 µM
[18] = Half-life in male CD-1 mouse at 10 mg/kg, IM measured by LC-MS/MS analysis; type: ADME, organism-based; details: in vivo
Myoblast [19] = assay: Effect on DUX4-target gene expression in facioscapulohumeral muscular dystrophy (FSHD) primary pateint derived myoblasts at 0.03 to 3 microM assessed as decrease in PRAMEF2 expression; type: functional, cell-based; details: Homo sapiens, dose 0.03-3 µM
Myoblast [20] = assay: Effect on myosin heavy chain expression in facioscapulohumeral muscular dystrophy (FSHD) affected human embryonic stem cell (hESC)-derived skeletal myoblasts at 100 nM and measured by immunocytochemistry analysis relative to control; type: functional, cell-based
Myoblast [21] = assay: Effect on myotube gene expression in facioscapulohumeral muscular dystrophy (FSHD) primary pateint derived myoblasts at 0.03 to 3 microM assessed as decrease in MYOG expression; type: functional, cell-based; details: Homo sapiens, dose 0.03-3 µM
[22] = target: DNA-dependent protein kinase catalytic subunit (Homo sapiens) (UniProt P78527); assay: Inhibition of PRKDC in facioscapulohumeral muscular dystrophy (FSHD) primary pateint derived myoblasts at 0.01 to 1 uM and measured by immunofluorescence method; type: cell-based; details: Myoblast, dose 0.01-1 µM
Chain of DNA-dependent protein kinase catalytic subunit (Homo sapiens) (P78527 whole entry): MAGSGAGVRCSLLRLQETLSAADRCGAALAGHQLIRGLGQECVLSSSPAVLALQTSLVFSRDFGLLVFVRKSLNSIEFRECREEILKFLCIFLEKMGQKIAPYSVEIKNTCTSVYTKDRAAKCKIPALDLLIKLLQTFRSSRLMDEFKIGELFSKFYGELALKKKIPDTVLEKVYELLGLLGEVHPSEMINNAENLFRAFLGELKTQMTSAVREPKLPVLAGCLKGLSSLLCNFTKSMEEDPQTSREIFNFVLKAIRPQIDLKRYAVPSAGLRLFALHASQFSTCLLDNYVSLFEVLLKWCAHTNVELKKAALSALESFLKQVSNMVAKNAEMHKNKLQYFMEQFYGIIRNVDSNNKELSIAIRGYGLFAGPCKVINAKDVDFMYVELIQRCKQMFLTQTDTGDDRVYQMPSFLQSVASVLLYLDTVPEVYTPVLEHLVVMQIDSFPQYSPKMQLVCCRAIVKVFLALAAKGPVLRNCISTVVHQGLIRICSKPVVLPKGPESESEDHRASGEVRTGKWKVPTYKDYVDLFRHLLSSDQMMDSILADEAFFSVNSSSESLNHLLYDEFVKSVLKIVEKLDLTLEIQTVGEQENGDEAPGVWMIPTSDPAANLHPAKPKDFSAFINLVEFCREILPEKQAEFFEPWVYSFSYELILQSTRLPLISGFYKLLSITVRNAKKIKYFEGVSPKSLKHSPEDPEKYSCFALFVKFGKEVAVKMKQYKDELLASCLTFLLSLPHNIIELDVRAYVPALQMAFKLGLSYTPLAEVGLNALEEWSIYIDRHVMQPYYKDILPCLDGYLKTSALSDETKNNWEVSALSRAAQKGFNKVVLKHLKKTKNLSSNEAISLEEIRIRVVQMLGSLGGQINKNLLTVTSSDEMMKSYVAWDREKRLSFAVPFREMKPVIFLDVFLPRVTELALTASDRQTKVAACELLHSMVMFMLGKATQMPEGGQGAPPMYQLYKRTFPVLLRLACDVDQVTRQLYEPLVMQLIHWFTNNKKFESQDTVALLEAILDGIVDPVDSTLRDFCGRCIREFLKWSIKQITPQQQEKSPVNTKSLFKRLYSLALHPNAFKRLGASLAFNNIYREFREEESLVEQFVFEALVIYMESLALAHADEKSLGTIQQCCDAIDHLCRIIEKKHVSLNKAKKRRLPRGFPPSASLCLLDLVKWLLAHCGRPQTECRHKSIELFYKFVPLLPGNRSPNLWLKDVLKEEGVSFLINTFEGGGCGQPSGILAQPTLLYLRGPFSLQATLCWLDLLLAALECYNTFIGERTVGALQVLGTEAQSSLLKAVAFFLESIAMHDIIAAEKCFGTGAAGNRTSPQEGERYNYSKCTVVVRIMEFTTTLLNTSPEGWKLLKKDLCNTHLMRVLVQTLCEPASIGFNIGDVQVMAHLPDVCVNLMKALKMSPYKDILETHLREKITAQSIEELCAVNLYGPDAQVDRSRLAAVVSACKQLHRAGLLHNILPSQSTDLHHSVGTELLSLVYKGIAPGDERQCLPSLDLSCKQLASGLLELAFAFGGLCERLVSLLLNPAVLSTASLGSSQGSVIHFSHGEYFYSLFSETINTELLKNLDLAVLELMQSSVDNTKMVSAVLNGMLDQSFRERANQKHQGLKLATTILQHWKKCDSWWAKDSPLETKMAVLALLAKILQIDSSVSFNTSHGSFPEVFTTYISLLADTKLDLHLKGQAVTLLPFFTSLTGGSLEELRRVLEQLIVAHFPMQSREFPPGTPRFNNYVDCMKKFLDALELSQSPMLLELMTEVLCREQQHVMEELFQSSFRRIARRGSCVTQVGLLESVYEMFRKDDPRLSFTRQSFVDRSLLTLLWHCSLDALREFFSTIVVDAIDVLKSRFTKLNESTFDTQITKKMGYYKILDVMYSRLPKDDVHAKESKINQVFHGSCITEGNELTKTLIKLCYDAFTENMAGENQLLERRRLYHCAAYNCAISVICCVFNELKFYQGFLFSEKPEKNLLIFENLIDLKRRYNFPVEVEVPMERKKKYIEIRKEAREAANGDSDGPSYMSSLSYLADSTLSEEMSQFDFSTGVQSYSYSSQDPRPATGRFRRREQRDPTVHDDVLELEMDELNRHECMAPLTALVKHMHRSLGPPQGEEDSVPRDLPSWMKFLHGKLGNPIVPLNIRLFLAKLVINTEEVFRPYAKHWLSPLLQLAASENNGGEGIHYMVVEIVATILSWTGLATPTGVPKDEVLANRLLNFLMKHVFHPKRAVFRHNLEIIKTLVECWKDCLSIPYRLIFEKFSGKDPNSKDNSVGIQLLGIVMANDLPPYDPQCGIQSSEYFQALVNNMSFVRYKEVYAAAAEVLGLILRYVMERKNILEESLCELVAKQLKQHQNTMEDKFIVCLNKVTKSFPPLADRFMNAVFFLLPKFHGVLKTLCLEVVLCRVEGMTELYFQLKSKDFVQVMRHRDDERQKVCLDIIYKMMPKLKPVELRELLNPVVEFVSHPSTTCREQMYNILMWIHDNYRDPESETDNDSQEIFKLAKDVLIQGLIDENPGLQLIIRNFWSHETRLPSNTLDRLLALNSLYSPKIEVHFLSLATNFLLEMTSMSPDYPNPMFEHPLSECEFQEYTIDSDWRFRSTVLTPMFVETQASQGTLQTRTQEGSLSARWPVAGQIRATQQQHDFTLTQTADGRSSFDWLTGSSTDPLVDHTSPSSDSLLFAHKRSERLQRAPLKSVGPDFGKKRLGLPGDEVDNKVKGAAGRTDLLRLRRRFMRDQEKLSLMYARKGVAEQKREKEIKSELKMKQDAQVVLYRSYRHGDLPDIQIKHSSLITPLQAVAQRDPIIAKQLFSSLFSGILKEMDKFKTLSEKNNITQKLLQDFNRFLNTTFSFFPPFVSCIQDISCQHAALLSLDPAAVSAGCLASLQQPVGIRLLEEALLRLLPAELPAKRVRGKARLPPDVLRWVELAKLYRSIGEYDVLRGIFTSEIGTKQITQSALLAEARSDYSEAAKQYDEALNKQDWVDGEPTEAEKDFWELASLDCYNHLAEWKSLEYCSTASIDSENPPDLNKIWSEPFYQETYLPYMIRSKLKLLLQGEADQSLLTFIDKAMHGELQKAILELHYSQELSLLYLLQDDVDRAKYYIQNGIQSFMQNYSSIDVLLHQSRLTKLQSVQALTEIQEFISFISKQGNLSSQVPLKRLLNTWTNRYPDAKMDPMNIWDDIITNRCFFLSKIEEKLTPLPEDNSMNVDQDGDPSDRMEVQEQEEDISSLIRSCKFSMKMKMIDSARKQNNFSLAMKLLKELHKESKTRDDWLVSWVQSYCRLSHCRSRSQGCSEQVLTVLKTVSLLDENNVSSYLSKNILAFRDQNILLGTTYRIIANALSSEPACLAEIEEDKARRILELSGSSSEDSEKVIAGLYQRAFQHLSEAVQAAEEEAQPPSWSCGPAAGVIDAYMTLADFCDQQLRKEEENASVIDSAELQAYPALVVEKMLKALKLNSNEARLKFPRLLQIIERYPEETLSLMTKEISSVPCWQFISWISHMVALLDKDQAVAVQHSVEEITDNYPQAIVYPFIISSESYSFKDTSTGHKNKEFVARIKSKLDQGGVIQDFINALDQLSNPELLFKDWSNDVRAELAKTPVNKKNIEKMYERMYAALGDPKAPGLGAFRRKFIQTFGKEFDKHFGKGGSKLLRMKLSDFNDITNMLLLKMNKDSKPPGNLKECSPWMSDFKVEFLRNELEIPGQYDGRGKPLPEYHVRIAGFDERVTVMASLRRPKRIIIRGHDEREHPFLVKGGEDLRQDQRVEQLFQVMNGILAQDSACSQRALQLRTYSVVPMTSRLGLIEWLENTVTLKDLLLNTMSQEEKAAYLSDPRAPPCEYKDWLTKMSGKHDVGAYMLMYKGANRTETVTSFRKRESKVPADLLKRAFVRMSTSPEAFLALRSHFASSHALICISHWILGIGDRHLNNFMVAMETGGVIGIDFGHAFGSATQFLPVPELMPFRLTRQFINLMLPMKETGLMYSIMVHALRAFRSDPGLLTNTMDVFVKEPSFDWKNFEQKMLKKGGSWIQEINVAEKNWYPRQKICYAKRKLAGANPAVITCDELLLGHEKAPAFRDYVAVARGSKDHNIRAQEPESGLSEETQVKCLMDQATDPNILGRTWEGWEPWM

Myoblast [23] = assay: Effect on myosin heavy chain expression in facioscapulohumeral muscular dystrophy (FSHD) affected human embryonic stem cell (hESC)-derived skeletal myoblasts at 0.01 to 3 uM and measured by immunocytochemistry analysis relative to control; type: functional, cell-based; details: dose 0.01-3 µM
Myoblast [24] = assay: Effect on myotube gene expression in facioscapulohumeral muscular dystrophy (FSHD) primary pateint derived myoblasts at 0.03 to 3 microM assessed as decrease in MYH8 expression; type: functional, cell-based; details: Homo sapiens, dose 0.03-3 µM
[25] = Half-life in male CD-1 mouse at 50 mg/kg, IM measured by LC-MS/MS analysis; type: ADME, organism-based; details: in vivo
[26] = Downregulation of DUX4 expression in facioscapulohumeral muscular dystrophy (FSHD) affected human embryonic stem cell (hESC)-derived skeletal myoblasts and measured by immunocytochemistry analysis; type: functional, cell-based; details: Myoblast
[27] = target: Proto-oncogene tyrosine-protein kinase Src (Homo sapiens) (UniProt P12931); assay: Inhibition of SRC in facioscapulohumeral muscular dystrophy (FSHD) primary pateint derived myoblasts at 0.01 to 1 uM and measured by immunofluorescence method; type: cell-based; details: Myoblast, dose 0.01-1 µM
Chain of Proto-oncogene tyrosine-protein kinase Src (Homo sapiens) (P12931 2-536 limits assumed): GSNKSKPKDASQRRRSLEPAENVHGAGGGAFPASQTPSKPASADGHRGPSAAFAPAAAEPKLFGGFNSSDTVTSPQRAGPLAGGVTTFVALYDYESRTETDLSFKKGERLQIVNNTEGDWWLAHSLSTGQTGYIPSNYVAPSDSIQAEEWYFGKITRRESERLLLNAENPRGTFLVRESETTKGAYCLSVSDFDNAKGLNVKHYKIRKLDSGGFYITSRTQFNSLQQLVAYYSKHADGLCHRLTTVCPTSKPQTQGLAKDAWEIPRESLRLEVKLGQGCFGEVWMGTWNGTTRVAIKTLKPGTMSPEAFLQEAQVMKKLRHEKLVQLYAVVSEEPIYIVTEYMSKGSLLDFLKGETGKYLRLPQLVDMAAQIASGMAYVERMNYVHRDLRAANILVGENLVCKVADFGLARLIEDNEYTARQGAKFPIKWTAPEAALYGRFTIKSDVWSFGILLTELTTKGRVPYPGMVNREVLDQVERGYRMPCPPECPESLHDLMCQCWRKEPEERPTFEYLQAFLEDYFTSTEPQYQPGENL

Myoblast [28] = assay: Downregulation of DUX4 expression in facioscapulohumeral muscular dystrophy (FSHD) affected human embryonic stem cell (hESC)-derived skeletal myoblasts at 100 nM and measured by immunocytochemistry analysis relative to control; type: functional, cell-based
Myoblast [29] = assay: Effect on PRKDC expression in facioscapulohumeral muscular dystrophy (FSHD) primary pateint derived myoblasts at 0.01 to 1 uM and measured by RT-PCR analysis; type: functional, cell-based; details: Homo sapiens, dose 0.01-1 µM
Myoblast [30] = assay: Effect on DUX4-target gene expression in facioscapulohumeral muscular dystrophy (FSHD) primary pateint derived myoblasts at 0.03 to 3 microM assessed as decrease in ZSCAN4 expression; type: functional, cell-based; details: Homo sapiens, dose 0.03-3 µM
Myoblast [31] = assay: Effect on DUX4-target gene expression in facioscapulohumeral muscular dystrophy (FSHD) primary pateint derived myoblasts at 0.03 to 3 microM assessed as decrease in KHDC1L expression; type: functional, cell-based; details: Homo sapiens, dose 0.03-3 µM
Myoblast [32] = assay: Effect on DNA methylation levels at 4qA regions of chromosome 4 in myotubes of facioscapulohumeral muscular dystrophy (FSHD) affected human embryonic stem cell (hESC)-derived skeletal myoblasts at 0.01 to 1 uM; type: functional, cell-based; details: dose 0.01-1 µM
Myoblast [33] = assay: Effect on SRC expression in facioscapulohumeral muscular dystrophy (FSHD) primary pateint derived myoblasts at 0.01 to 1 uM and measured by RT-PCR analysis; type: functional, cell-based; details: Homo sapiens, dose 0.01-1 µM
[34] = Brain concentration in male CD-1 mouse at 10 mg/kg, IM administered as single dose and measured by LC-MS/MS analysis; type: ADME, organism-based; details: in vivo, BLD = below limit of detection
Myoblast [35] = assay: Effect on DNA methylation levels at D4Z4 regions of chromosome 4 in myotubes of facioscapulohumeral muscular dystrophy (FSHD) affected human embryonic stem cell (hESC)-derived skeletal myoblasts at 0.01 to 1 uM; type: functional, cell-based; details: dose 0.01-1 µM

CNC(=O)c1cc(Oc2ccc(NC(=O)Nc3cc(C(C)(C)C)nn3-c3ccc4ncccc4c3)c(F)c2)ccn1 [REBASTINIB]
Activity (Myoblast [1]): inactive | Activity (Myoblast [2]): Active | IC50 [3]: 0.1 µM | Activity (Myoblast [4]): Active | Activity (Myoblast [5]): inactive | Activity (Myoblast [6]): Active | Activity (Myoblast [7]): inactive | Activity (Myoblast [8]): Active | Activity (Myoblast [9]): Active | Activity (Myoblast [10]): Active | Activity (Myoblast [11]): Active | Activity (Myoblast [12]): Active | Activity (Myoblast [13]): inactive | Activity (Myoblast [14]): Active | Activity (Myoblast [15]): Active | Activity (Myoblast [16]): Active | Activity (Myoblast [17]): inactive | half-life [18]: 5.59 h | Activity (Myoblast [19]): Active | Activity (Myoblast [20]): inactive | Activity (Myoblast [21]): inactive | inhibition [22]: Active | Activity (Myoblast [23]): inactive | Activity (Myoblast [24]): inactive | half-life [25]: 8.1 h | EC50 [26]: 37.9 µM | inhibition [27]: Active | Activity (Myoblast [28]): Active | Activity (Myoblast [29]): inactive | Activity (Myoblast [30]): Active | Activity (Myoblast [31]): Active | Activity (Myoblast [32]): inactive | Activity (Myoblast [33]): inactive | Drug uptake [34]: Bld | Activity (Myoblast [35]): inactive
